Results taken from patent US11141413B2, “Method of treating renal cell carcinoma using N-(4-(6,7-dimethoxyquinolin-4-yloxy)phenyl)-N′-(4-fluorophenyl)cyclopropane-1,1-dicarboxamide, (2S)-hydroxybutanedioate” (Exelixis, Inc., priority 2016, dated 2021).

Columns and labels:
[1] = target: P-gp (Homo sapiens, UniProt P08183); assay: Drug transporter systems in vitro; format: in vitro ADME
[2] = system: metastatic renal cell carcinoma (mRCC); assay: CABOSUN (ALLIANCE A031203) trial, cabozantinib vs sunitinib as initial targeted therapy
Experimental: Pts were randomized 1:1 to receive Cabo (60 mg QD) or Sun (50 mg QD, 4 weeks on/2 weeks off). Pts were stratified by the IMDC risk groups (intermediate vs. poor risk) and bone metastasis (yes, no). […] Secondary endpoints included OS, investigator-assessed overall response rate (ORR), and toxicity. The Kaplan-Meier product-limit estimator was used to estimate the OS between treatment arms.

[3] = target: CYP2B6 (Homo sapiens, UniProt P20813); assay: Metabolic pathways in vitro: effect of CYP inhibition on cabozantinib metabolite formation; format: in vitro ADME
[4] = target: CYP2C8 (Homo sapiens, UniProt P10632); assay: as above; format: in vitro ADME
[5] = target: CYP2D6 (Homo sapiens, UniProt P10635); assay: as above; format: in vitro ADME
[6] = system: advanced renal cell carcinoma (RCC); assay: METEOR (Study 1) randomized phase 3 trial, cabozantinib vs everolimus: PFS, OS, ORR; format: in vivo, human; details: for ORR (95% CI), IRC / ORR (95% CI), Investigator assessed / Progressive disease, IRC / Progressive disease, Investigator assessed / Stable disease, IRC / Stable disease, Investigator assessed / Confirmed ORR (95% CI), IRC / Confirmed ORR (95% CI), Investigator assessed / Confirmed responses (95% CI), IRC / Confirmed responses (95% CI), Investigator assessed: RECIST 1.1
[7] = Patients With High Tumor Burden
[8] = Primary TWT analysis (first 375), cut-off May 2015, min follow-up 11 mo, 247 PFS events
[9] = Pts with Bone and Visceral Metastases
[10] = Supportive analysis, all events (all 658), cut-off May 2015, min follow-up 6 mo, 394 PFS events
[11] = Traditional analysis (all 658), cut-off November 2014, min follow-up 2 days, 247 PFS events

Sequence of P-gp (P08183 whole entry): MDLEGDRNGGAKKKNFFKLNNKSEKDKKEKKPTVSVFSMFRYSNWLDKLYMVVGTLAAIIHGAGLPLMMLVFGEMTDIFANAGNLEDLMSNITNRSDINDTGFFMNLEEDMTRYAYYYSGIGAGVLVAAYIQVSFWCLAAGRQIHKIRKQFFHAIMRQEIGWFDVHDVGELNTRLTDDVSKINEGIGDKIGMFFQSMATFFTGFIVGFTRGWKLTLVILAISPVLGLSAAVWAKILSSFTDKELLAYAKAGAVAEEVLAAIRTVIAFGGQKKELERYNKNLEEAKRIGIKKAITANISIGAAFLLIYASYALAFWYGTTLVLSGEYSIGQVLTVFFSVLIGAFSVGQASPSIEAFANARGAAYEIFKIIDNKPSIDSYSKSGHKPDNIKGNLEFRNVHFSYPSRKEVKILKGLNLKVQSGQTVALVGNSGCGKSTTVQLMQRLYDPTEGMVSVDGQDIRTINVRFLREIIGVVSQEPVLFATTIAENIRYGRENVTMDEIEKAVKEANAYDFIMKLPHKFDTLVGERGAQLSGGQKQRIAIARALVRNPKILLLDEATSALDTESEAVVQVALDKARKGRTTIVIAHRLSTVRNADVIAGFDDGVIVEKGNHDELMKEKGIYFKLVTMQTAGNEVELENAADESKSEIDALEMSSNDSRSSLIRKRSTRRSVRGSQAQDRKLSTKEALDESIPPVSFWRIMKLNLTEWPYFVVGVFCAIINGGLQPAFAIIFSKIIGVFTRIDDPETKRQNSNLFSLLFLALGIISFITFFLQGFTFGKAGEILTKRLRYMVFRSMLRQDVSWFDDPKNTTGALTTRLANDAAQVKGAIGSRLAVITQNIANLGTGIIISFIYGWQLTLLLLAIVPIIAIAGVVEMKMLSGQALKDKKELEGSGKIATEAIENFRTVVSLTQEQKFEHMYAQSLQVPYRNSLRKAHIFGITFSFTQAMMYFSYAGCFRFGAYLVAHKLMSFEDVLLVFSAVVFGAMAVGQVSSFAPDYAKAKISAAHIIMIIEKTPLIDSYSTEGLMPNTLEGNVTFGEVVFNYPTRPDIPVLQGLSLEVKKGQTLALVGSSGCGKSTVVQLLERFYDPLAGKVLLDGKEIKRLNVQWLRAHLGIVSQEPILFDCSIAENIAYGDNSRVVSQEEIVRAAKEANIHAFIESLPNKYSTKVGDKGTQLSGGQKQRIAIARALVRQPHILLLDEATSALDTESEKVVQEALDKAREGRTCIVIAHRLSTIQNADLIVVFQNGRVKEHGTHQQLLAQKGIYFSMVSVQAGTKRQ
Sequence of CYP2C8 (P10632 whole entry): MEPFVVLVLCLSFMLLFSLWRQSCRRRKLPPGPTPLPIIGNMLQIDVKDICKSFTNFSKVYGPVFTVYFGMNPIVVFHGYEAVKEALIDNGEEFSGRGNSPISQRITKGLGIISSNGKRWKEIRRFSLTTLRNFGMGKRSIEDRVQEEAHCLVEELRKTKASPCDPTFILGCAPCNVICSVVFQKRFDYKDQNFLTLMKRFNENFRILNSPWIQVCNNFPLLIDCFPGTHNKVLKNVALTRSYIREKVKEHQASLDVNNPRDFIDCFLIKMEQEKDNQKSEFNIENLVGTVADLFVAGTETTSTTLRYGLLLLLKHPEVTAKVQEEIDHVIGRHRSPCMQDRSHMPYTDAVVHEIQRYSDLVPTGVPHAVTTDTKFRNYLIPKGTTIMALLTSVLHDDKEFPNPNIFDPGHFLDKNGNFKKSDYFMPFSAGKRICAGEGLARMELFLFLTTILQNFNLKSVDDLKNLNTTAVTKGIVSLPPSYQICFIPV
Sequence of CYP2D6 (P10635 whole entry): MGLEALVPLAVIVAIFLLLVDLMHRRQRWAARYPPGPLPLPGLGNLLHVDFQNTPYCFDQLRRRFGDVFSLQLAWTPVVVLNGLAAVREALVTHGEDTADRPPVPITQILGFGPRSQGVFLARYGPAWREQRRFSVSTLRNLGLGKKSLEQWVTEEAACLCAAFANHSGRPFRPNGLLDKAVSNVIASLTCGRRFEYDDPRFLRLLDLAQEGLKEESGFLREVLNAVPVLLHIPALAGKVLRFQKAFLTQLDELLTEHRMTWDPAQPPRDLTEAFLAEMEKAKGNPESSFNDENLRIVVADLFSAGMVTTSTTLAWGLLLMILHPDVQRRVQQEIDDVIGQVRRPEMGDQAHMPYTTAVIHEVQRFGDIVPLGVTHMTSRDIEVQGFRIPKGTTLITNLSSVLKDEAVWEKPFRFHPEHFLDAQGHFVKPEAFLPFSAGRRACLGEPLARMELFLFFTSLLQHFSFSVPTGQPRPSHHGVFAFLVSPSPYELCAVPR
Sequence of CYP2B6 (P20813 whole entry): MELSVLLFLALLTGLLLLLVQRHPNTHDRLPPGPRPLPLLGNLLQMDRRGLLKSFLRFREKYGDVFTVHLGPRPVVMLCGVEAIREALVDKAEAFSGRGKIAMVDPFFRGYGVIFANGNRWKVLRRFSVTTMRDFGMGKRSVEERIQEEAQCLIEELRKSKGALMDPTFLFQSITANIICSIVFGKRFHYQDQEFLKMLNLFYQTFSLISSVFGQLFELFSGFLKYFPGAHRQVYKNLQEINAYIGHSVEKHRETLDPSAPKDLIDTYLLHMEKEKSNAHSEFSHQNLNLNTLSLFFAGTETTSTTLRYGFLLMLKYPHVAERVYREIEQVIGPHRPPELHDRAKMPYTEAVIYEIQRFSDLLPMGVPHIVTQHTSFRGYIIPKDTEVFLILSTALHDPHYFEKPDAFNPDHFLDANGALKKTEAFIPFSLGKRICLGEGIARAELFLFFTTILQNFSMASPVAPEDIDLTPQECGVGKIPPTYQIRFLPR

COc1cc2nccc(Oc3ccc(NC(=O)C4(C(=O)Nc5ccc(F)cc5)CC4)cc3)c2cc1OC [cabozantinib]
Inhibition of P-gp transport activities [1]: inhibitor | P-gp substrate status [1]: not a substrate | Diarrhea, grade 3 or 4 ([2]; all-causality): 10% | Fatigue, grade 3 or 4 ([2]; all-causality): 6% | Hematologic adverse events, grade 3 or 4 ([2]; all-causality): 3% | Hypertension, grade 3 or 4 ([2]; all-causality): 28% | Palmar-plantar erythrodysesthesia, grade 3 or 4 ([2]; all-causality): 8% | All-causality grade 3 or 4 adverse events ([2]; in vivo): 67% | Median OS ([2]; in vivo): 30.3 months | ORR ([2]; in vivo): 46% | OS adjusted HR, cabozantinib vs sunitinib ([2]; in vivo): 0.80 | Reduction in rate of progression or death vs sunitinib ([2]; in vivo): 34% | Median PFS ([2]; untreated mRCC, intermediate or poor risk): 8.2 months | Effect of inhibition of CYP2B6 on cabozantinib metabolite formation [3]: no effect | Effect of inhibition of CYP2C8 on cabozantinib metabolite formation [4]: no effect | Effect of inhibition of CYP2D6 on cabozantinib metabolite formation [5]: no effect | Kaplan-Meier estimate of % of patients alive ([6]; 6 Months landmark): 91% (87%, 93%) | Kaplan-Meier estimate of % of patients alive ([6]; 12 Months landmark): 73% | Kaplan-Meier estimate of % of patients alive ([6]; 12 Months landmark, listed as Cabozantinib): 73% (68%, 79%) | Kaplan-Meier estimate of % of patients alive ([6]; 18 Months landmark): 58% | Kaplan-Meier estimate of % of patients alive ([6]; 18 Months landmark, listed as Cabozantinib): 58% (53%, 64%) | Kaplan-Meier estimate of % of patients alive ([6]; 24 Months landmark): 48% (39%, 55%) | OS HR, planned interim analysis, cabozantinib vs everolimus ([6]; 49% information fraction, all 658 randomized, at time of primary PFS analysis): 0.67 | ORR (95% CI), IRC ([6]; Asia Pacific): 28 (15-45) % | ORR (95% CI), Investigator assessed ([6]; Asia Pacific): 36 (21-53) % | Progressive disease, IRC ([6]; Asia Pacific): 10% | Progressive disease, Investigator assessed ([6]; Asia Pacific): 0% | Stable disease, IRC ([6]; Asia Pacific): 62% | Stable disease, Investigator assessed ([6]; Asia Pacific): 64% | ORR (95% CI), IRC ([6]; Europe): 15 (10-21) % | ORR (95% CI), Investigator assessed ([6]; Europe): 22 (16-29) % | Progressive disease, IRC ([6]; Europe): 10% | Progressive disease, Investigator assessed ([6]; Europe): 8% | Stable disease, IRC ([6]; Europe): 69% | Stable disease, Investigator assessed ([6]; Europe): 65% | Median OS ([6]; ITT, all 658 randomized, cutoff Dec. 31, 2015): 21.4 months | Objective response rate (confirmed, partial responses only) per IRC ([6]; ITT, all 658 randomized, cutoff May 22, 2015): 17% | ORR (95% CI), IRC ([6]; North America): 16 (10-24) % | ORR (95% CI), Investigator assessed ([6]; North America): 20 (13-29) % | Progressive disease, IRC ([6]; North America): 17% | Progressive disease, Investigator assessed ([6]; North America): 13% | Stable disease, IRC ([6]; North America): 62% | Stable disease, Investigator assessed ([6]; North America): 62% | Confirmed ORR (95% CI), IRC [6, 7]: 18 (12-24) % | Confirmed ORR (95% CI), Investigator assessed [6, 7]: 21 (15-28) % | Progressive disease, IRC [6, 7]: 8% | Progressive disease, Investigator assessed [6, 7]: 7% | Stable disease, IRC [6, 7]: 68% | Stable disease, Investigator assessed [6, 7]: 67% | Confirmed ORR (95% CI), IRC ([6]; Patients With Low Tumor Burden): 17 (12-24) % | Confirmed ORR (95% CI), Investigator assessed ([6]; Patients With Low Tumor Burden): 27 (20-34) % | Progressive disease, IRC ([6]; Patients With Low Tumor Burden): 16% | Progressive disease, Investigator assessed ([6]; Patients With Low Tumor Burden): 10% | Stable disease, IRC ([6]; Patients With Low Tumor Burden): 62% | Stable disease, Investigator assessed ([6]; Patients With Low Tumor Burden): 59% | Median PFS [6, 8]: 7.4 mo | PFS HR, cabozantinib vs everolimus [6, 8]: 0.58 | Confirmed responses (95% CI), IRC ([6]; Pts with Bone Metastases): 17 (9-27) % | Confirmed responses (95% CI), Investigator assessed ([6]; Pts with Bone Metastases): 27 (18-39) % | Progressive disease, IRC ([6]; Pts with Bone Metastases): 13% | Progressive disease, Investigator assessed ([6]; Pts with Bone Metastases): 9% | Stable disease, IRC ([6]; Pts with Bone Metastases): 70% | Stable disease, Investigator assessed ([6]; Pts with Bone Metastases): 64% | Confirmed responses (95% CI), IRC [6, 9]: 20 (11-32) % | Confirmed responses (95% CI), Investigator assessed [6, 9]: 30 (19-43) % | Progressive disease, IRC [6, 9]: 15% | Progressive disease, Investigator assessed [6, 9]: 10% | Stable disease, IRC [6, 9]: 65% | Stable disease, Investigator assessed [6, 9]: 60% | Confirmed responses (95% CI), IRC ([6]; Pts without Bone Metastases): 17 (13-23) % | Confirmed responses (95% CI), Investigator assessed ([6]; Pts without Bone Metastases): 23 (18-28) % | Progressive disease, IRC ([6]; Pts without Bone Metastases): 12% | Progressive disease, Investigator assessed ([6]; Pts without Bone Metastases): 9% | Stable disease, IRC ([6]; Pts without Bone Metastases): 64% | Stable disease, Investigator assessed ([6]; Pts without Bone Metastases): 83% | Median PFS [6, 10]: 7.4 mo | PFS HR, cabozantinib vs everolimus [6, 10]: 0.51 | Median PFS [6, 11]: 6 mo | PFS HR, cabozantinib vs everolimus [6, 11]: 0.48 | Objective response rate per investigator ([6]; all 658 randomized, cutoff May 22, 2015): 24%
